# According to patent publication US20240285670A1, “THERAPEUTIC TREATMENT OF TUMORS BY BLOCKING THE HEME SYNTHESIS-EXPORT AXIS” (Università degli Studi di Torino, priority 2021, published 2024):
# Experiments:
# Format in all cases: cell-based, human
# [1] = test system: Caco2 cells; experiment: Heme content (fluorescence assay) in Caco2 cells; conditions: FLVCR1a-silenced vs scramble shRNA Caco2 cells, 5 mM 5-ALA, time course
# Description: (A) Heme content in Caco2 cells treated with 5 mM 5-ALA (black bars and white bars) or with 5 mM 5-ALA+0.5 mM SA (light grey outlined bars) for the indicated time points. […] Values are expressed as relative fluorescence intensity. Data represent mean±SEM, n=2. For statistical analyses, a two-way analysis of variance was used, followed by the Bonferroni correction for multiple group comparisons; **=p<0.01, ***=p<0.001. 5-ALA, 5-aminolevulinic acid; SA, succinylacetone. (B) Intracellular 5-ALA levels. […] Values are expressed as peak area/μg proteins. Data represent mean±SEM of n=4 wells pooled from two independent experiments. For statistical analyses, an unpaired Student's t-test was used; **=p<0.01. 5-ALA, 5-aminolevulinic acid. […] Values are expressed as peak area/μg proteins. […] Transcript abundance, normalized to beta-actin mRNA expression, is expressed as a fold increase over a calibrator sample. […] Band intensities were measured by densitometry and normalized to vinculin expression. […]
# Intracellular heme concentration was measured using a fluorescence assay, as previously reported (Sinclair et al., 2001). […] Fluorescence (wavelength: excitation 405 nm-emission 660-720 nm) of the resultant protoporphyrin was assessed on a Glomax Multi Detection System (Promega Corporation, Madison WI, USA).
# The endogenous protoporphyrin content (measured in parallel unheated samples in oxalic acid) was subtracted. […]
# [2] = test system: Caco2 cells; experiment: TCA cycle enzymes activities in Caco2 cells; conditions: FLVCR1a knockdown vs scramble shRNA Caco2 cells
# From the text: TCA cycle flux is reported in the centre of the figure and expressed as pmol CO2/h/mg protein. Data represent mean±SEM, n=3. For statistical analyses, an unpaired Student's t-test was used. **=p<0.01. Moreover, TCA cycle enzymes activities are reported in boxes and expressed as mU/mg mitochondrial proteins. Data represent mean±SEM, n=3. For statistical analyses, an unpaired Student's t-test was used; *=p<0.05, ***=p<0.001. […] Results are expressed as pmol CO2/h/mg protein. Data represent mean±SEM, n=3. For statistical analyses, an unpaired Student's t-test was used; *=p<0.05, **=p<0.01. […]
# The enzymatic activities of citrate synthase, α-ketoglutarate dehydrogenase, succinate dehydrogenase and malate dehydrogenase were measured on 10 μg mitochondrial proteins using the Citrate Synthase Assay Kit (Sigma Aldrich, St. Louis, MO USA, catalog n° MAK193), Alpha Ketoglutarate (alpha KG) Assay Kit (Abcam, Cambridge, UK, catalog n° ab83431), Malate Dehydrogenase Assay Kit (Sigma Aldrich, St. Louis, MO USA, catalog n° MAK196), Succinate Dehydrogenase Activity Colorimetric Assay Kit (BioVision, Milpitas, CA USA, catalog n° K660), as per manufacturer's instructions. Results were expressed as mU/mg mitochondrial proteins.
# [3] = test system: SKCO1 cells; experiment: TCA cycle flux in SKCO1 cells; conditions: FLVCR1a-silenced vs scramble shRNA SKCO1 cells
# From the text: TCA cycle flux is reported in the centre of the figure and expressed as pmol CO2/h/mg protein. Data represent mean±SEM, n=3. For statistical analyses, an unpaired Student's t-test was used. **=p<0.01. Moreover, TCA cycle enzymes activities are reported in boxes and expressed as mU/mg mitochondrial proteins. Data represent mean±SEM, n=3. For statistical analyses, an unpaired Student's t-test was used; *=p<0.05, ***=p<0.001. […] Results are expressed as pmol CO2/h/mg protein. Data represent mean±SEM, n=3. For statistical analyses, an unpaired Student's t-test was used; *=p<0.05, **=p<0.01.
# The glucose flux through TCA cycle was measured by radiolabeling cells with 2 μCi/ml [6-^14C]-glucose (55 mCi/mmol; PerkinElmer, Waltham, MA, USA, catalog n° NEC045X). Cell suspensions were incubated for 1 hour in a closed experimental system to trap the ^14CO2 developed from [^14C]-glucose. The reaction was stopped by injecting 0.5 ml of 0.8N HClO4. The amount of glucose transformed into CO2 through the TCA cycle was calculated as described (Riganti et al., 2004) and expressed as pmoles CO2/h/mg cell proteins.
substance,measurement,setting,value
"FLVCR1a shRNA: shRNA specifically down-regulating FLVCR1a without targeting FLVCR1b; pLKO.1 lentiviral clone TRCN0000059599, antisense SEQ ID No.: 2 (antisense TTGCTAATGATGCTGTACTGG; sense CCAGTACAGCATCATTAGCAA)",intracellular heme upon induction of heme biosynthesis,[1],faster and higher increase in the amount of intracellular heme than control cells
same,"TCA cycle enzymes activity (citrate synthase, α-ketoglutarate dehydrogenase, succinate dehydrogenase, malate dehydrogenase)",[2],enhanced activity
same,TCA cycle flux,[3],Increased TCA cycle flux
